Test: xn = mol fraction of the nth substance listed
Conditions: Liquid, Vibrating tube method

CCC(=O)OC [methyl propanoate] + CCCCCCCCC
Conditions	mass density [kg/m3]
288.15 K, x1 = 0.0638	727.45
288.15 K, x1 = 0.0962	730.67
288.15 K, x1 = 0.1483	736.11
288.15 K, x1 = 0.2104	743.23
288.15 K, x1 = 0.2364	746.3
288.15 K, x1 = 0.2979	754.2
288.15 K, x1 = 0.3526	761.75
288.15 K, x1 = 0.4001	768.71
288.15 K, x1 = 0.4322	773.78
288.15 K, x1 = 0.4985	784.9
288.15 K, x1 = 0.5504	794.42
288.15 K, x1 = 0.5954	803.25
288.15 K, x1 = 0.6449	813.66
288.15 K, x1 = 0.693	824.65
288.15 K, x1 = 0.7454	837.57
288.15 K, x1 = 0.7911	849.84
288.15 K, x1 = 0.8391	863.79
288.15 K, x1 = 0.8911	880.25
288.15 K, x1 = 0.9477	900.31
288.15 K, x1 = 1	921.21
298.15 K, x1 = 0.0519	718.48
298.15 K, x1 = 0.1041	723.58
298.15 K, x1 = 0.1448	727.66
298.15 K, x1 = 0.1889	732.52
298.15 K, x1 = 0.2498	739.65
298.15 K, x1 = 0.2949	745.26
298.15 K, x1 = 0.3489	752.48
298.15 K, x1 = 0.409	761.11
298.15 K, x1 = 0.4474	767.1
298.15 K, x1 = 0.5033	776.37
298.15 K, x1 = 0.6015	794.61
298.15 K, x1 = 0.6609	807.17
298.15 K, x1 = 0.7048	817.21
298.15 K, x1 = 0.751	828.64
298.15 K, x1 = 0.7937	839.79
298.15 K, x1 = 0.8444	854.36
298.15 K, x1 = 0.9002	871.96
298.15 K, x1 = 0.9516	890.02
298.15 K, x1 = 1	909.1
308.15 K, x1 = 0.0618	711.31
308.15 K, x1 = 0.1007	715.02
308.15 K, x1 = 0.165	721.49
308.15 K, x1 = 0.1941	724.61
308.15 K, x1 = 0.2601	732.22
308.15 K, x1 = 0.2902	735.94
308.15 K, x1 = 0.3585	744.82
308.15 K, x1 = 0.4102	752.25
308.15 K, x1 = 0.4567	759.29
308.15 K, x1 = 0.4962	765.69
308.15 K, x1 = 0.5559	776.15
308.15 K, x1 = 0.5986	784.17
308.15 K, x1 = 0.6514	794.91
308.15 K, x1 = 0.699	805.43
308.15 K, x1 = 0.7476	817.03
308.15 K, x1 = 0.796	829.48
308.15 K, x1 = 0.8477	844.14
308.15 K, x1 = 0.8947	858.8
308.15 K, x1 = 0.9504	877.94
308.15 K, x1 = 1	896.91
318.15 K, x1 = 0.0587	703.05
318.15 K, x1 = 0.1139	708.17
318.15 K, x1 = 0.141	710.78
318.15 K, x1 = 0.2148	718.51
318.15 K, x1 = 0.2624	723.9
318.15 K, x1 = 0.3145	730.23
318.15 K, x1 = 0.3621	736.39
318.15 K, x1 = 0.394	740.75
318.15 K, x1 = 0.4491	748.79
318.15 K, x1 = 0.4889	755.06
318.15 K, x1 = 0.5458	764.61
318.15 K, x1 = 0.6011	774.72
318.15 K, x1 = 0.6538	785.15
318.15 K, x1 = 0.6972	794.52
318.15 K, x1 = 0.7464	805.96
318.15 K, x1 = 0.7904	816.99
318.15 K, x1 = 0.8414	831.04
318.15 K, x1 = 0.8899	845.62
318.15 K, x1 = 0.9498	865.72
318.15 K, x1 = 1	884.71
328.15 K, x1 = 0.0562	694.8
328.15 K, x1 = 0.0989	698.61
328.15 K, x1 = 0.1503	703.45
328.15 K, x1 = 0.1813	706.43
328.15 K, x1 = 0.194	707.71
328.15 K, x1 = 0.2651	715.48
328.15 K, x1 = 0.3128	721.06
328.15 K, x1 = 0.3582	726.72
328.15 K, x1 = 0.4509	739.58
328.15 K, x1 = 0.5045	747.9
328.15 K, x1 = 0.5545	756.22
328.15 K, x1 = 0.6005	764.42
328.15 K, x1 = 0.6523	774.55
328.15 K, x1 = 0.7484	795.44
328.15 K, x1 = 0.7963	807.38
328.15 K, x1 = 0.8469	821.01
328.15 K, x1 = 0.9004	836.96
328.15 K, x1 = 0.9501	853.63
328.15 K, x1 = 1	872.22

Reference: the NIST ThermoML archive (doi:10.1021/je4009415)
